Experimental data taken from ChEMBL document CHEMBL1201862, “PubChem BioAssay data set” (2004).
Calls of active or inactive are those of the source.

Assays:
Aminopeptidase N = molecular target: T1, Aminopeptidase N (Plasmodium falciparum FcB1/Columbia, UniProt O96935); test: P. falciparum M1AAP inhibitors, biochemical, fluorogenic H-Leu-NHMec substrate, 1536-well (AID 1445); parameters: species or system Plasmodium falciparum 3D7, 3D7
T1 sequence (O96935 whole entry): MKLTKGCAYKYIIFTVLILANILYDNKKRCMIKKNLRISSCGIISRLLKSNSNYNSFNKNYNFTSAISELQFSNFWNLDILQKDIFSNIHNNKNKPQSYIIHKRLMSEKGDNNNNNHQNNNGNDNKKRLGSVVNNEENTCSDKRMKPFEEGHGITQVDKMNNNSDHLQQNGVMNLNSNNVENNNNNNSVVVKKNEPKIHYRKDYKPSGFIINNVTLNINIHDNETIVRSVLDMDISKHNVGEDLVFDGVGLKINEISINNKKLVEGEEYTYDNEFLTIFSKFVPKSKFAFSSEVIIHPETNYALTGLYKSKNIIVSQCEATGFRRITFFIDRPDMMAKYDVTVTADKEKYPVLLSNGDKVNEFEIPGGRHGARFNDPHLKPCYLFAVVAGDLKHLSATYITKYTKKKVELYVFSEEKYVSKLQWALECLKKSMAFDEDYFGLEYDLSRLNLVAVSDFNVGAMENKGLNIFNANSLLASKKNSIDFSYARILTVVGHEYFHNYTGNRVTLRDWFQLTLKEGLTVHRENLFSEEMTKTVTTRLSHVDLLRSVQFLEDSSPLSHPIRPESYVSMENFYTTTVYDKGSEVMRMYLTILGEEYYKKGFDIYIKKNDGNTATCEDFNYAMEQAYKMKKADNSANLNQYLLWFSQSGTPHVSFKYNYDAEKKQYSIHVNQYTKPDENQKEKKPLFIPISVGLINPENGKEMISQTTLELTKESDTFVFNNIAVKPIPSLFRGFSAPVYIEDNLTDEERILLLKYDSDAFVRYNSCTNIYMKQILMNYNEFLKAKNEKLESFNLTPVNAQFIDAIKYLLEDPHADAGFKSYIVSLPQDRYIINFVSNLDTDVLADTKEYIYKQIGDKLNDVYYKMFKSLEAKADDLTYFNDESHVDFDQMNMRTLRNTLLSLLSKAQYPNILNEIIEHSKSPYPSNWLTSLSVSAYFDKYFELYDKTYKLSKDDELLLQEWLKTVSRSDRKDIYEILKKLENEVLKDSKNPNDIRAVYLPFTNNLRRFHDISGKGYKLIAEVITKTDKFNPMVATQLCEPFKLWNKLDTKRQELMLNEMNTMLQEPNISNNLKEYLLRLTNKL

INS1 = test: beta cell apoptosis inhibitors, cytokine rescue, dose response, luminescence, retest (AID 449756); format: functional, cell-based; details: Rattus norvegicus;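 also: cell death triggered by IL-1 beta plus TNF-alpha plus IFN-gamma mixture; protective hits raise ATP signal compared with cytokine alone wells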
[1] = tested on: Streptococcus sp. 'group A'; test: growth inhibition of control SK(-) GAS strain, dose response, counter-screen for streptokinase expression inhibitor project, luminescence, kanamycin, BacTiterGlo, confirmation (AID 1900); format: functional, organism-based
[2] = molecular target: T2, RNA-binding protein pos-1 (Caenorhabditis elegans, UniProt G5EF15); test: inhibitors of POS-1/mex-3 RNA binding, dose response, biochemical, fluorescence polarization (AID 1964);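 also: purified POS-1 fused to maltose binding protein made in E. coli; potency of compounds blocking POS-1 binding to fluorescent RNA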
T2 sequence (G5EF15 whole entry): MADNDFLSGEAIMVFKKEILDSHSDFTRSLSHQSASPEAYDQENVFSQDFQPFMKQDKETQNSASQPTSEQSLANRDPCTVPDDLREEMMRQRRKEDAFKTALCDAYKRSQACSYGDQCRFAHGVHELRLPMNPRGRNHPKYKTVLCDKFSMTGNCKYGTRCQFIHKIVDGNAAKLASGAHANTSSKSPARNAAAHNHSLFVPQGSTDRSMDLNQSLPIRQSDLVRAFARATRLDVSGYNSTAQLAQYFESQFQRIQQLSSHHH

Streptokinase A = molecular target: T3, Streptokinase A (Streptococcus pyogenes serotype M1, UniProt P10520); test: S. pyogenes streptokinase expression inhibitors, potency, dose response, plasminogen activation absorbance, OD405 (AID 1914); format: functional, Streptococcus pyogenes M1 GAS;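 also: secreted streptokinase activity via plasminogen activation per viability signal from cell pellet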
T3 sequence (P10520 whole entry): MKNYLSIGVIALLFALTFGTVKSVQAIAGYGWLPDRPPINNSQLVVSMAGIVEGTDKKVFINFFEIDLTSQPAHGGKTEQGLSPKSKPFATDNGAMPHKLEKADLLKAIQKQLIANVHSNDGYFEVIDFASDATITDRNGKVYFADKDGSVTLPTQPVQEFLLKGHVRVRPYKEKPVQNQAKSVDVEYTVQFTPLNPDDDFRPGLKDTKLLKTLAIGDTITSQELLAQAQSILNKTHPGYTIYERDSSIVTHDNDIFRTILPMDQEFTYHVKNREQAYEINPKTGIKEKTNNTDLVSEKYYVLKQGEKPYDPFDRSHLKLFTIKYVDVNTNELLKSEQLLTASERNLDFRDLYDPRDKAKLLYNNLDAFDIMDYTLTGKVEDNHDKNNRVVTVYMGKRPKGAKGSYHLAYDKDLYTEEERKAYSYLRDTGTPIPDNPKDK

Streptococcus = test: Group A Streptococcus viability loss, dose response, counter-screen for streptokinase expression inhibitor project, luminescence, BacTiterGlo (AID 1915); format: functional, organism-based;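 also: potency for reduction of bacterial viability or growth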
[3] = molecular target: T4, Zinc finger protein mex-5 (Caenorhabditis elegans, UniProt Q9XUB2); test: MEX-5/TCR-2 RNA interaction inhibitors, dose response, biochemical, C. elegans, fluorescence polarization (AID 1960)
T4 sequence (Q9XUB2 whole entry): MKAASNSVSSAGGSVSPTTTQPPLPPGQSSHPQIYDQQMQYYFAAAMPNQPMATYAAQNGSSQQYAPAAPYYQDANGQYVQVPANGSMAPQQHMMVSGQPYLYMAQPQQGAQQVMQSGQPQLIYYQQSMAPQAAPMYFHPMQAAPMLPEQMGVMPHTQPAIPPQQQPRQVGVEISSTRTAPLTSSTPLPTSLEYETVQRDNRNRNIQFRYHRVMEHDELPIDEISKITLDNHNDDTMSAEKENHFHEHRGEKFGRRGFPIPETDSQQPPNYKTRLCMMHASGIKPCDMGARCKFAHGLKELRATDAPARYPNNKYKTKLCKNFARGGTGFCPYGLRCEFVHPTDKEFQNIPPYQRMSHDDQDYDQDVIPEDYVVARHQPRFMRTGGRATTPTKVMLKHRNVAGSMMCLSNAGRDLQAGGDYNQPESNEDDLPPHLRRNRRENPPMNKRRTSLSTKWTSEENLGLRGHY

Nonstructural protein 1 = Nonstructural protein 1 (Influenza A virus, UniProt Q194T2); format: functional, Influenza A virus (A/California/07/2009(H1N1))
Chain of Nonstructural protein 1 (Q194T2 whole entry): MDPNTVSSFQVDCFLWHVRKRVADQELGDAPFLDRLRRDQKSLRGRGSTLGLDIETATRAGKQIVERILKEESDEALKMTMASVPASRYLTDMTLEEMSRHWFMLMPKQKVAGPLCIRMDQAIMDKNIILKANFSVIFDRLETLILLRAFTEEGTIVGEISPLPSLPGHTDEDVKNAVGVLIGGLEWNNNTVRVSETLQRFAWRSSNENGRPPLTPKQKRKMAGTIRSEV

[4] = molecular target: Heat shock protein HSP 90-alpha (Homo sapiens, UniProt P07900); format: functional, organism-based
[5] = cytotoxicity in HEK-293T cells, dose response, cytotoxicity control for TCR NF-kB inhibitor project, luminescence, T-cell screen hits (AID 489026); format: functional, cell-based;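 also: cells exposed to compound about 14 hours before the viability readout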
[6] = Shn3 3'UTR reporter inhibitors, dose response, cell-based, Clone20 osteoblasts, firefly luciferase, cherry-picked (AID 624132); format: functional;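 also: firefly luciferase luminescence from reporter carrying the Shn3 3'UTR in osteoblasts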
[7] = control 3'UTR Renilla luciferase suppression, dose response, counter-screen for Shn3 inhibitor project, cell-based, Clone20-Shn3RL, cherry-picked (AID 624133); format: functional
[8] = HepG2 cell cytotoxicity, dose response, cytotoxicity control for Shn3 inhibitor project, CellTiter-Glo, cherry-picked (AID 624134); format: functional, cell-based
[9] = molecular target: T5, High affinity choline transporter 1 (Homo sapiens, UniProt Q9GZV3); test: CHT inhibitors, dose response, cell-based, 5-point CRC, membrane potential dye (AID 504840); format: functional
T5 sequence (Q9GZV3 whole entry): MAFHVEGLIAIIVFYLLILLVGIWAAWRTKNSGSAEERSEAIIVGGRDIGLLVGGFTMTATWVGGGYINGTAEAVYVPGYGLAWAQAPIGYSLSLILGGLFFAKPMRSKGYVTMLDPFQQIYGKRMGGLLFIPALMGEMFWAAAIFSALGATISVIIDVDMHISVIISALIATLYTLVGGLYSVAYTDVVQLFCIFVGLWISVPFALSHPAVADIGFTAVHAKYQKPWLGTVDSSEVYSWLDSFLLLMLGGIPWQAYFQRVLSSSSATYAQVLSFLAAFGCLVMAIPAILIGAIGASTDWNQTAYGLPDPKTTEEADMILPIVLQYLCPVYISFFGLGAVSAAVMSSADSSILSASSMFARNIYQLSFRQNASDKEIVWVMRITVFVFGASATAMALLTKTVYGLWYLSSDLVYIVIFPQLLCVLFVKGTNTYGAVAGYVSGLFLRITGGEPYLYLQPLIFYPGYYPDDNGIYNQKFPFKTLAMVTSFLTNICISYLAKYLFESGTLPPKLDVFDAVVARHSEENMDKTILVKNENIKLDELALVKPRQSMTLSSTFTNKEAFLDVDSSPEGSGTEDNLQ

[10] = cytotoxicity toward NIH3T3 fibroblasts, dose response, counter-screen, cell-based, ATP luminescence, mouse fibroblasts (AID 2010); format: functional;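 also: cells exposed to compound for about 90 hours before reading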
cells = format: functional
[11] = THP-1 cell cytotoxicity, dose response, cytotoxicity control for non-replicating M. tuberculosis project (AID 489025); format: functional
[12] = inhibitors of intracellular T. cruzi replication, confirmation, NIH3T3 host cells, beta-gal luminescence (AID 2044); format: functional, cell-based;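 also: intracellular parasites grown in NIH/3T3 mouse fibroblasts as host cells; luminescent beta-galactosidase reporter signal from transgenic T. cruzi replicating inside host cells; inhibitors lower the luminescence signal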

Structure (SMILES): O=C1N=C(NS(=O)(=O)c2ccccc2)S/C1=C1\C(=O)Nc2ccccc21
- IC50 (Aminopeptidase N): 25.1 µM (active)

Structure (SMILES): Cc1ccc(Oc2nc(-c3ccccn3)nc3ccccc23)cc1
- AC50 (INS1): 1.78 µM (active)
- EC50 [1]: 8.8 µM (active)
- EC50 [2]: > 300 µM (inconclusive)
- EC50 (Streptokinase A): > 150 µM (not active)
- EC50 (Streptococcus): > 150 µM (not active)
- EC50 [3]: 6.96 µM (active)

Structure (SMILES): C=CCN1C(=O)/C(=N\Nc2c(C)n(C)n(-c3ccccc3)c2=O)C(=O)NC1=S
- IC50 (Nonstructural protein 1): 2.29 µM (active)

Structure (SMILES): Oc1ccc(C=NNC(=S)Nc2ccc(F)cc2)c(O)c1
- IC50 (Nonstructural protein 1): 14.6 µM (active)

Structure (SMILES): O=C1C=CC(=O)N1c1ccc2c(c1)Cc1cc(F)ccc1-2
- AC50 [4]: < 195 nM (active)

Structure (SMILES): CCn1c(CNC(=O)c2cccs2)nnc1SCC(=O)Nc1cc(Cl)ccc1C
- IC50 (Aminopeptidase N): 6.86 µM (active)

Structure (SMILES): Cc1ccc(-c2cc(C(F)F)n3ncc(C(=O)N4CCc5ccccc54)c3n2)cc1
- IC50 [5]: > 80 µM (inactive)

Structure (SMILES): O=C(Sc1cccc2cccnc12)c1ccc(F)cc1
- IC50 [5]: > 80 µM (inactive)

Structure (SMILES): CC(C)(C)C(=O)/C(=C/c1ccc(Cl)cc1)n1cncn1
- AC50 [6]: 3.75 µM (active)
- AC50 [7]: 10.8 µM (active)
- AC50 [8]: 18 µM (active)

Structure (SMILES): CCOC(=O)C1=C(COC(=O)c2ccc(OC(C)C)cc2)NC(=O)NC1C (stereo unspecified)
- IC50 [9]: 16.6 µM (active)

Structure (SMILES): Cc1cc(C)n(CC(=O)N/N=C/c2cc([N+](=O)[O-])ccc2O)n1
- IC50 (Nonstructural protein 1): 10.8 µM (active)

Structure (SMILES): O=C(Nn1c(SCc2ccc(F)cc2)nc2ccsc2c1=O)c1ccccc1
- IC50 (Aminopeptidase N): 55.6 µM (active)

Structure (SMILES): COc1ccc(CCN2C(=O)C3C4C=CC(C3C2=O)C2C(=O)N(CCc3ccc(OC)c(OC)c3)C(=O)C42)cc1OC (stereo unspecified)
- IC50 [5]: > 80 µM (inactive)

Structure (SMILES): COCCNc1oc(/C=C/c2ccccc2)nc1C#N
- IC50 (Aminopeptidase N): 36.7 µM (active)

Structure (SMILES): Cc1ccc(OCCCCn2ccnc2)c(Cl)c1
- EC50 [10]: > 60 µM (not active)
- IC50 (cells): 39.1 µM (active)
- CC50 [11]: > 40 µM (active)
- EC50 [12]: 1.37 µM (active)

Structure (SMILES): CN(C)Cc1c(O)c(Cl)cc2c3c(c(=O)oc12)CCCC3
- IC50 (Aminopeptidase N): 30.1 µM (active)
